# Assay results published in ChEMBL document CHEMBL1147043, “Comparative metabolism of radiolabeled muraglitazar in animals and humans by quantitative and qualitative metabolite profiling” (Drug Metab Dispos, 2007).
# Legend:
# [1] = system: Hepatocyte; assay: Metabolic stability in human hepatocytes assessed as 12,17-dihydroxy muraglitazar level by LC/MS analysis relative to control; type: ADME, cell-based
# [2] = Biodistribution in orally dosed cynomolgus monkey urine assessed as 12-hydroxy muraglitazar level by LC/MS analysis; type: ADME, organism-based, Macaca fascicularis; details: in vivo, po
# [3] = system: Rattus norvegicus; assay: Biodistribution in orally dosed Sprague-Dawley rat urine assessed as 12-hydroxy muraglitazar level by LC/MS analysis; type: ADME, organism-based; details: in vivo, po
# [4] = Biodistribution in orally dosed human feces assessed as 9-hydroxy-O-demethyl muraglitazar level by LC/MS analysis; type: ADME, organism-based; details: in vivo, po
# [5] = Metabolic stability in cynomolgus monkey hepatocytes assessed as O-dealkyl-O-demethyl muraglitazar level by LC/MS analysis relative to control; type: ADME, cell-based, Macaca fascicularis, Hepatocyte
# [6] = Biodistribution in orally dosed human feces assessed as 17-hydroxy muraglitazar level by LC/MS analysis; type: ADME, organism-based; details: in vivo, po
# [7] = system: Plasma; assay: Biodistribution in orally dosed Beagle dog plasma assessed as 12-dihydroxy muraglitazar level after 1 hr by LC/MS analysis; type: ADME, organism-based, Canis lupus familiaris; details: in vivo, po
# [8] = Biodistribution in orally dosed Beagle dog feces assessed as muraglitazar 12-carboxylic acid level by LC/MS analysis; type: ADME, organism-based, Canis lupus familiaris; details: in vivo, po
# [9] = Drug concentration in bile duct-cannulated Sprague-Dawley rat urine assessed as recovery of radioactive dose at 11 mg/kg, po after 24 hrs; type: ADME, organism-based; set-up: dose 11 mg/kg, route oral; details: in vivo
# [10] = Drug concentration in bile duct-cannulated Sprague-Dawley rat feces assessed as recovery of radioactive dose at 11 mg/kg, po after 24 hrs; type: ADME, organism-based; set-up: dose 11 mg/kg, route oral; details: in vivo
# [11] = system: Rattus norvegicus; assay: Biodistribution in orally dosed Sprague-Dawley rat urine assessed as 8-hydroxy muraglitazar level by LC/MS analysis; type: ADME, organism-based; details: in vivo, po
# [12] = Biodistribution in orally dosed Beagle dog feces assessed as 9,12-dihydroxy muraglitazar level by LC/MS analysis; type: ADME, organism-based, Canis lupus familiaris; details: in vivo, po
# [13] = Fecal excretion rate in orally dosed Sprague-Dawley rat within 24 hrs; type: ADME, organism-based; details: faeces, po, read-out: Activity
# [14] = Biodistribution in orally dosed cynomolgus monkey feces assessed as imide derivative of muraglitazar level by LC/MS analysis; type: ADME, organism-based, Macaca fascicularis; details: in vivo, po
# [15] = Biodistribution in orally dosed cynomolgus monkey urine assessed as O-demethyl muraglitazar glucuronide level by LC/MS analysis; type: ADME, organism-based, Macaca fascicularis; details: in vivo, po
# [16] = Drug concentration in bile duct-cannulated CD1 mouse bile at 40 mg/kg, po after 24 hrs; type: ADME, organism-based; set-up: dose 40 mg/kg, route oral; details: read-out: Drug uptake
# [17] = Biodistribution in orally dosed cynomolgus monkey feces assessed as 17-hydroxy-O-demethyl muraglitazar level by LC/MS analysis; type: ADME, organism-based, Macaca fascicularis; details: in vivo, po
# [18] = system: Hepatocyte; assay: Metabolic stability in human hepatocytes assessed as O-demethyl muraglitazar glucuronide level by LC/MS analysis relative to control; type: ADME, cell-based
# [19] = Drug concentration in bile duct-cannulated cynomolgus monkey bile at 5 mg/kg, po after 48 hrs; type: ADME, organism-based, Macaca fascicularis; set-up: dose 5 mg/kg, route oral; details: in vivo
# [20] = system: Plasma; assay: Biodistribution in orally dosed cynomolgus monkey plasma assessed as 12-dihydroxy muraglitazar level after 12 hrs by LC/MS analysis; type: ADME, organism-based, Macaca fascicularis; details: in vivo, po
# [21] = Bile excretion of compound in bile duct-cannulated orally dosed Sprague-Dawley rat within 24 hrs; type: ADME, organism-based; details: po, read-out: Activity
# [22] = Biodistribution in orally dosed Beagle dog feces assessed as 8-hydroxy muraglitazar level by LC/MS analysis; type: ADME, organism-based, Canis lupus familiaris; details: in vivo, po
# [23] = system: Hepatocyte; assay: Metabolic stability in human hepatocytes assessed as 9-hydroxy muraglitazar level by LC/MS analysis relative to control; type: ADME, cell-based
# [24] = Drug concentration in Sprague-Dawley rat urine assessed as recovery of radioactive dose at 11 mg/kg, po after 168 hrs; type: ADME, organism-based; set-up: dose 11 mg/kg, route oral; details: in vivo
# [25] = Metabolic stability in CD1 mouse hepatocytes assessed as di-oxygenated muraglitazar level by LC/MS analysis relative to control; type: ADME, cell-based, Hepatocyte
# [26] = system: Plasma; assay: Biodistribution in orally dosed cynomolgus monkey plasma assessed as 12-hydroxy-O-demethyl muraglitazar level after 1 hr by LC/MS analysis; type: ADME, organism-based, Macaca fascicularis; details: in vivo, po
# [27] = system: Plasma; assay: Biodistribution in orally dosed Beagle dog plasma assessed as muraglitazar glucuronide level after 1 hr by LC/MS analysis; type: ADME, organism-based, Canis lupus familiaris; details: in vivo, po
# [28] = Biodistribution in orally dosed human feces assessed as O-dealkyl-O-demethyl muraglitazar level by LC/MS analysis; type: ADME, organism-based; details: in vivo, po
# [29] = system: Rattus norvegicus; assay: Cmax in Sprague-Dawley rat at 10 mg/kg, po after 24 hrs; type: ADME, organism-based; set-up: dose 10 mg/kg, route oral; details: in vivo
# [30] = system: Plasma; assay: Biodistribution in orally dosed Beagle dog plasma assessed as O-Dealkyl muraglitazar level after 12 hrs by LC/MS analysis; type: ADME, organism-based, Canis lupus familiaris; details: in vivo, po
# [31] = system: Hepatocyte; assay: Metabolic stability in human hepatocytes assessed as O-Dealkyl muraglitazar level by LC/MS analysis relative to control; type: ADME, cell-based
# [32] = Biodistribution in orally dosed cynomolgus monkey feces assessed as 17-hydroxy muraglitazar level by LC/MS analysis; type: ADME, organism-based, Macaca fascicularis; details: in vivo, po
# [33] = system: Plasma; assay: Biodistribution in orally dosed cynomolgus monkey plasma assessed as 17-dihydroxy muraglitazar level after 1 hr by LC/MS analysis; type: ADME, organism-based, Macaca fascicularis; details: in vivo, po
# [34] = Drug concentration in bile duct-cannulated Sprague-Dawley rat bile assessed as recovery of radioactive dose at 11 mg/kg, po after 24 hrs; type: ADME, organism-based; set-up: dose 11 mg/kg, route oral; details: in vivo
# [35] = system: Rattus norvegicus; assay: Biodistribution in orally dosed Sprague-Dawley rat urine assessed as 12-hydroxy-O-demethyl muraglitazar level by LC/MS analysis; type: ADME, organism-based; details: in vivo, po
# [36] = system: Plasma; assay: Biodistribution in orally dosed Sprague-Dawley rat plasma assessed as 12,17-dihydroxy muraglitazar level after 12 hrs by LC/MS analysis; type: ADME, organism-based; details: in vivo, po
# [37] = system: Hepatocyte; assay: Metabolic stability in human hepatocytes assessed as 12-hydroxy-O-demethyl muraglitazar level by LC/MS analysis relative to control; type: ADME, cell-based
# [38] = Biodistribution in orally dosed Beagle dog feces assessed as O-dealkyl muraglitazar level by LC/MS analysis; type: ADME, organism-based, Canis lupus familiaris; details: in vivo, po
# [39] = system: Plasma; assay: Biodistribution in orally dosed human plasma assessed as muraglitazar 12-carboxylic acid level after 4 hrs by LC/MS analysis; type: ADME, organism-based; details: in vivo, po
# [40] = Tmax in human at 10 mg, po after 72 hrs; type: ADME, organism-based; details: in vivo
# [41] = Drug concentration in bile duct-cannulated CD1 mouse urine assessed as recovery of radioactive dose at 40 mg/kg, po after 24 hrs; type: ADME, organism-based; set-up: dose 40 mg/kg, route oral; details: in vivo
# [42] = system: Plasma; assay: Biodistribution in orally dosed cynomolgus monkey plasma assessed as […] muraglitazar level after 4 hrs by LC/MS analysis; type: ADME, organism-based, Macaca fascicularis; details: in vivo, po
# [43] = Drug concentration in human bile assessed as recovery of radioactive dose at 20 mg, po after 3 to 8 hrs; type: ADME, organism-based; details: in vivo
# [44] = Biodistribution in orally dosed cynomolgus monkey feces assessed as 8,12-dihydroxy muraglitazar level by LC/MS analysis; type: ADME, organism-based, Macaca fascicularis; details: in vivo, po
# [45] = system: Hepatocyte; assay: Metabolic stability in Sprague-Dawley rat hepatocytes assessed as 17-hydroxy muraglitazar level by LC/MS analysis relative to control; type: ADME, cell-based
# [46] = system: Hepatocyte; assay: Metabolic stability in Sprague-Dawley rat hepatocytes assessed as 8-hydroxy muraglitazar level by LC/MS analysis relative to control; type: ADME, cell-based
# [47] = system: Plasma; assay: Biodistribution in orally dosed human plasma assessed as 8-hydroxy-O-demethyl muraglitazar level after 4 hrs by LC/MS analysis; type: ADME, organism-based; details: in vivo, po
# [48] = system: Plasma; assay: Biodistribution in orally dosed cynomolgus monkey plasma assessed as 12-dihydroxy muraglitazar level after 4 hrs by LC/MS analysis; type: ADME, organism-based, Macaca fascicularis; details: in vivo, po
# [49] = system: Hepatocyte; assay: Metabolic stability in human hepatocytes assessed as 12-hydroxy muraglitazar level by LC/MS analysis relative to control; type: ADME, cell-based
# [50] = system: Plasma; assay: Biodistribution in orally dosed cynomolgus monkey plasma assessed as 12,17-dihydroxy muraglitazar level after 4 hrs by LC/MS analysis; type: ADME, organism-based, Macaca fascicularis; details: in vivo, po
# [51] = system: Plasma; assay: Biodistribution in orally dosed cynomolgus monkey plasma assessed as O-demethyl muraglitazar glucuronide level after 4 hrs by LC/MS analysis; type: ADME, organism-based, Macaca fascicularis; details: in vivo, po
# [52] = Biodistribution in orally dosed human feces assessed as O-dealkyl muraglitazar level by LC/MS analysis; type: ADME, organism-based; details: in vivo, po
# [53] = Fecal excretion rate in orally dosed Sprague-Dawley rat within 48 hrs; type: ADME, organism-based; details: faeces, po, read-out: Activity
structure (smiles),measurement,setting,value
COc1ccc(OC(=O)N(CC(=O)O)Cc2ccc(OCCc3nc(-c4ccccc4)oc3C)cc2)cc1 [MURAGLITAZAR],Drug uptake,[1],0.2%
same,Drug uptake,[2],0.04%
same,Drug uptake,[3],0.03%
same,Drug uptake,[4],2.21%
same,Drug uptake,[5],< 0.2%
same,Drug uptake,[6],5.92%
same,Drug uptake,[7],1%
same,Drug uptake,[8],0.1%
same,Drug uptake,[9],0.98%
same,Drug uptake,[10],0.55%
same,Drug uptake,[11],< 0.01%
same,Drug uptake,[12],0.34%
same,dose excreted at 24 h,[13],85%
same,Drug uptake,[14],0.56%
same,Drug uptake,[15],< 0.01%
same,dose excreted at 24 h,[16],13.2%
same,Drug uptake,[17],3.22%
same,Drug uptake,[18],< 0.2%
same,Drug uptake,[19],0.007 mgequiv/ml
same,Drug uptake,[20],0.4%
same,dose excreted at 24 h,[21],65%
same,Drug uptake,[22],0.18%
same,Drug uptake,[23],0.5%
same,Drug uptake,[24],1%
same,Drug uptake,[25],1.4%
same,Drug uptake,[26],1.5%
same,Drug uptake,[27],< 0.05%
same,Drug uptake,[28],0.4%
same,Cmax,[29],13.5 ugequiv/ml
same,Drug uptake,[30],9%
same,Drug uptake,[31],5.7%
same,Drug uptake,[32],25.73%
same,Drug uptake,[33],8%
same,Drug uptake,[34],65.1%
same,Drug uptake,[35],0.01%
same,Drug uptake,[36],< 0.05%
same,Drug uptake,[37],< 0.2%
same,Drug uptake,[38],0.89%
same,Drug uptake,[39],0.2%
same,Tmax,[40],1 h
same,Drug uptake,[41],16.1%
same,Drug uptake,[42],1.3%
same,Drug uptake,[43],39.9%
same,Drug uptake,[44],2.41%
same,Drug uptake,[45],2%
same,Drug uptake,[46],< 0.2%
same,Drug uptake,[47],< 0.05%
same,Drug uptake,[48],1.6%
same,Drug uptake,[49],1.9%
same,Drug uptake,[50],1.5%
same,Drug uptake,[51],0.2%
same,Drug uptake,[52],0.8%
same,dose excreted at 48 h,[53],95%
